Measurements reported in PubChem BioAssay AID602128 (The Scripps Research Institute Molecular Screening Center, 2011).
Active and inactive are the calls of the source. No rule for the calls is given here.

Biological target: Mucolipin-3 (Homo sapiens) (UniProt Q8TDD5)
Experiment: human mucolipin-3 activators, concentration-response – cell-based, HEK293, calcium fluorescence, analogs, round 2, SAR follow-up (AID 602128)
Settings: HEK293 TRPML3 cells

Mucolipin-3 (Homo sapiens), sequence (Q8TDD5 whole entry, looked up): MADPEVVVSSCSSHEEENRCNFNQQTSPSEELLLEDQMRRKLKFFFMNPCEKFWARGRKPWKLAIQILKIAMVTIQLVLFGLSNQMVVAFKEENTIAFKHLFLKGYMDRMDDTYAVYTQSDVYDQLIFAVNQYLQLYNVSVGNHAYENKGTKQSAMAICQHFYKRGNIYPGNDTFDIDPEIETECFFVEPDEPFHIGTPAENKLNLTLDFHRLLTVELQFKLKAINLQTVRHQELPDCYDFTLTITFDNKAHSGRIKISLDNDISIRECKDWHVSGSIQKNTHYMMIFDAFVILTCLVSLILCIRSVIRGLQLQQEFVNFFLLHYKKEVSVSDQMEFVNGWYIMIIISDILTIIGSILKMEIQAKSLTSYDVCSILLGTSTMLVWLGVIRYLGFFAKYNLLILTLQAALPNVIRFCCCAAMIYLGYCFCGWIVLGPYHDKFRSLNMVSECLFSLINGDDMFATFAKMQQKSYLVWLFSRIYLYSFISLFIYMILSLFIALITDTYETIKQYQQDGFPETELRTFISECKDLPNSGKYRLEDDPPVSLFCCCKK

Compound | EC50
Cc1ccc(S(=O)(=O)n2nccc2-c2c(-c3ccc(Cl)cc3)noc2C)cc1 | > 29900 nM (inactive)
Cc1ccc(S(=O)(=O)n2ccc(-c3c(-c4ccc(Cl)cc4)noc3C)n2)cc1 | 291 nM
